Assay results: ChEMBL document CHEMBL2413072, “Synthesis and in vitro anticancer studies of novel C-2 arylidene congeners of lantadenes” (2013)

Assays:
Assay type in all cases: functional
HL-60(TB) [1] = assay: Growth inhibition of human HL-60(TB) cells assessed as cell growth at 10^-8 M by sulforhodamine B assay; conditions: read-out: Activity
[2] = Growth inhibition of human Hs 578T cells assessed as cell growth at 10^-4 M by sulforhodamine B assay; conditions: read-out: Activity
SF-295 = assay: Growth inhibition of human SF295 cells assessed as cell growth at 10^-4 M by sulforhodamine B assay; conditions: read-out: Activity
SNB-75 [3] = assay: Growth inhibition of human SNB75 cells assessed as cell growth at 10^-6 M by sulforhodamine B assay; conditions: read-out: Activity
RPMI-8226 = assay: Growth inhibition of human RPMI8226 cells assessed as cell growth at 10^-8 M by sulforhodamine B assay; conditions: read-out: Activity
SK-OV-3 [4] = assay: Growth inhibition of human SKOV3 cells assessed as cell growth at 10^-7 M by sulforhodamine B assay; conditions: read-out: Activity
SK-MEL-28 = assay: Growth inhibition of human SK-MEL-28 cells assessed as cell growth at 10^-4 M by sulforhodamine B assay; conditions: read-out: Activity
DU-145 [5] = assay: Growth inhibition of human DU145 cells by sulforhodamine B assay
OVCAR-4 = assay: Growth inhibition of human OVCAR4 cells assessed as cell growth at 10^-4 M by sulforhodamine B assay; conditions: read-out: Activity
MDA-MB-468 [6] = assay: Growth inhibition of human MDA-MB-468 cells by sulforhodamine B assay
UACC-257 [7] = assay: Growth inhibition of human UACC257 cells assessed as cell growth at 10^-4 M by sulforhodamine B assay; conditions: read-out: Activity
HL-60(TB) [8] = assay: Growth inhibition of human HL-60(TB) cells assessed as cell growth at 10^-4 M by sulforhodamine B assay; conditions: read-out: Activity
MOLT-4 = assay: Growth inhibition of human MOLT4 cells assessed as cell growth at 10^-4 M by sulforhodamine B assay; conditions: read-out: Activity
ACHN = assay: Growth inhibition of human ACHN cells assessed as cell growth at 10^-7 M by sulforhodamine B assay; conditions: read-out: Activity
HOP-62 = assay: Growth inhibition of human HOP62 cells assessed as cell growth at 10^-7 M by sulforhodamine B assay; conditions: read-out: Activity
KM12 = assay: Growth inhibition of human KM12 cells assessed as cell growth at 10^-6 M by sulforhodamine B assay; conditions: read-out: Activity
HCT-15 [9] = assay: Growth inhibition of human HCT15 cells assessed as cell growth at 10^-6 M by sulforhodamine B assay; conditions: read-out: Activity
A498 [10] = assay: Growth inhibition of human A498 cells assessed as cell growth at 10^-6 M by sulforhodamine B assay; conditions: read-out: Activity
IGROV-1 = assay: Growth inhibition of human IGROV1 cells assessed as cell growth at 10^-7 M by sulforhodamine B assay; conditions: read-out: Activity
SF-539 = assay: Growth inhibition of human SF539 cells assessed as cell growth at 10^-4 M by sulforhodamine B assay; conditions: read-out: Activity
COLO 205 = assay: Growth inhibition of human COLO205 cells assessed as cell growth at 10^-7 M by sulforhodamine B assay; conditions: read-out: Activity
DU-145 [11] = assay: Growth inhibition of human DU145 cells assessed as cell growth at 10^-6 M by sulforhodamine B assay; conditions: read-out: Activity
HT-29 [12] = assay: Growth inhibition of human HT-29 cells by sulforhodamine B assay
A549 = assay: Growth inhibition of human A549/ATCC cells assessed as cell growth at 10^-7 M by sulforhodamine B assay; conditions: read-out: Activity
NCI-H226 = assay: Growth inhibition of human NCI-H226 cells by sulforhodamine B assay
NCI-H460 = assay: Growth inhibition of human NCI-H460 cells assessed as cell growth at 10^-4 M by sulforhodamine B assay; conditions: read-out: Activity
SR = assay: Growth inhibition of human SR cells assessed as cell growth at 10^-6 M by sulforhodamine B assay; conditions: read-out: Activity
CAKI-1 = assay: Growth inhibition of human CAKI-1 cells assessed as cell growth at 10^-4 M by sulforhodamine B assay; conditions: read-out: Activity
HCT-15 [13] = assay: Growth inhibition of human HCT15 cells assessed as cell growth at 10^-8 M by sulforhodamine B assay; conditions: read-out: Activity
Malme-3M = assay: Growth inhibition of human MALME-3M cells assessed as cell growth at 10^-8 M by sulforhodamine B assay; conditions: read-out: Activity
[14] = Growth inhibition of human Hs 578T cells assessed as cell growth at 10^-7 M by sulforhodamine B assay; conditions: read-out: Activity
HT-29 [15] = assay: Growth inhibition of human HT-29 cells assessed as cell growth at 10^-7 M by sulforhodamine B assay; conditions: read-out: Activity
SK-OV-3 [16] = assay: Growth inhibition of human SKOV3 cells assessed as cell growth at 10^-6 M by sulforhodamine B assay; conditions: read-out: Activity
HL-60(TB) [17] = assay: Growth inhibition of human HL-60(TB) cells by sulforhodamine B assay
T47D = assay: Growth inhibition of human T47D cells assessed as cell growth at 10^-6 M by sulforhodamine B assay; conditions: read-out: Activity
UACC-257 [18] = assay: Growth inhibition of human UACC257 cells assessed as cell growth at 10^-8 M by sulforhodamine B assay; conditions: read-out: Activity
MDA-MB-468 [19] = assay: Growth inhibition of human MDA-MB-468 cells assessed as cell growth at 10^-4 M by sulforhodamine B assay; conditions: read-out: Activity
SW-620 = assay: Growth inhibition of human SW620 cells assessed as cell growth at 10^-7 M by sulforhodamine B assay; conditions: read-out: Activity
MCF7 = assay: Growth inhibition of human MCF7 cells assessed as cell growth at 10^-7 M by sulforhodamine B assay; conditions: read-out: Activity
SNB-75 [20] = assay: Growth inhibition of human SNB75 cells assessed as cell growth at 10^-8 M by sulforhodamine B assay; conditions: read-out: Activity
OVCAR-8 = assay: Growth inhibition of human OVCAR8 cells assessed as cell growth at 10^-8 M by sulforhodamine B assay; conditions: read-out: Activity
PC-3 = assay: Growth inhibition of human PC3 cells assessed as cell growth at 10^-6 M by sulforhodamine B assay; conditions: read-out: Activity
A498 [21] = assay: Growth inhibition of human A498 cells assessed as cell growth at 10^-8 M by sulforhodamine B assay; conditions: read-out: Activity
[22] = read-out: LC50 (the source's name)
[23] = read-out: pLC50 (the source's name) (converted)

C/C=C(/C)C(=O)O[C@@H]1CC(C)(C)C[C@H]2C3=CC[C@@H]4[C@@]5(C)CCC(=O)C(C)(C)[C@@H]5CC[C@@]4(C)[C@]3(C)CC[C@@]12C(=O)O [LANTADENE A] gave a growth at 0.01 µM (HL-60(TB) [1]) of 100%, a growth at 100 µM [2] of 21% and a growth at 100 µM (SF-295) of -6%. It also gave a growth at 1 µM (SNB-75 [3]) of 88%, a growth at 0.01 µM (RPMI-8226) of 102% and a growth at 0.1 µM (SK-OV-3 [4]) of 114%. The growth at 100 µM (SK-MEL-28) was 42%, the GI50 (DU-145 [5]; read-out: GI50) was 5.92 µM and the CC50 (DU-145 [5]; [22]) was over 100 µM. The TGI (DU-145 [5]; read-out: TGI) was over 100 µM, the GI50 (DU-145 [5]; read-out: pGI50 (converted)) was 5.89 µM and the CC50 (DU-145 [5]; [23]) was over 100 µM. It also gave a TGI (DU-145 [5]; read-out: pTGI (converted)) of over 100 µM, a growth at 100 µM (OVCAR-4) of 29% and a GI50 (MDA-MB-468 [6]; read-out: GI50) of 2.58 µM. The CC50 (MDA-MB-468 [6]; [22]) was over 100 µM, the TGI (MDA-MB-468 [6]; read-out: TGI) was over 100 µM and the GI50 (MDA-MB-468 [6]; read-out: pGI50 (converted)) was 2.57 µM. The CC50 (MDA-MB-468 [6]; [23]) was over 100 µM, the TGI (MDA-MB-468 [6]; read-out: pTGI (converted)) was over 100 µM and the growth at 100 µM (UACC-257 [7]) was 21%. It also gave a growth at 100 µM (HL-60(TB) [8]) of -38%, a growth at 100 µM (MOLT-4) of 2% and a growth at 0.1 µM (ACHN) of 107%. It also gave a growth at 0.1 µM (HOP-62) of 95%, a growth at 1 µM (KM12) of 84% and a growth at 1 µM (HCT-15 [9]) of 87%. For the same molecule, the growth at 1 µM (A498 [10]) was 72%, the growth at 0.1 µM (IGROV-1) was 111% and the growth at 100 µM (SF-539) was 17%. The growth at 0.1 µM (COLO 205) was 110%, the growth at 1 µM (DU-145 [11]) was 102% and the GI50 (HT-29 [12]; read-out: GI50) was 4.32 µM. It also gave an LC50 (50% cell kill) (HT-29 [12]; read-out: LC50) of over 100 µM, a TGI (HT-29 [12]; read-out: TGI) of over 100 µM and a GI50 (HT-29 [12]; read-out: pGI50 (converted)) of 4.37 µM. The LC50 (50% cell kill) (HT-29 [12]; read-out: pLC50 (converted)) was over 100 µM, the TGI (HT-29 [12]; read-out: pTGI (converted)) was over 100 µM and the growth at 0.1 µM (A549) was 90%. For the same molecule, the GI50 (NCI-H226; read-out: GI50) was 4.71 µM, the LC50 (NCI-H226; read-out: LC50) was over 100 µM and the TGI (NCI-H226; read-out: TGI) was over 100 µM. It also gave a GI50 (NCI-H226; read-out: pGI50 (converted)) of 4.68 µM, an LC50 (NCI-H226; read-out: pLC50 (converted)) of over 100 µM and a TGI (NCI-H226; read-out: pTGI (converted)) of over 100 µM. It also gave a growth at 100 µM (NCI-H460) of 8%, a growth at 1 µM (SR) of 80% and a growth at 100 µM (CAKI-1) of 20%. For the same molecule, the growth at 0.01 µM (HCT-15 [13]) was 100%, the growth at 0.01 µM (Malme-3M) was 98% and the growth at 0.1 µM [14] was 93%. For the same molecule, the growth at 0.1 µM (HT-29 [15]) was 101%, the growth at 1 µM (SK-OV-3 [16]) was 103% and the GI50 (HL-60(TB) [17]; read-out: GI50) was 1.87 µM. The CC50 (HL-60(TB) [17]; [22]) was over 100 µM, the TGI (HL-60(TB) [17]; read-out: TGI) was 5.26 µM and the GI50 (HL-60(TB) [17]; read-out: pGI50 (converted)) was 1.86 µM. The CC50 (HL-60(TB) [17]; [23]) was over 100 µM, the TGI (HL-60(TB) [17]; read-out: pTGI (converted)) was 5.25 µM and the growth at 1 µM (T47D) was 93%. The growth at 0.01 µM (UACC-257 [18]) was 96%, the growth at 100 µM (MDA-MB-468 [19]) was 1% and the growth at 0.1 µM (SW-620) was 95%. For the same molecule, the growth at 0.1 µM (MCF7) was 90%, the growth at 0.01 µM (SNB-75 [20]) was 86% and the growth at 0.01 µM (OVCAR-8) was 97%. It also gave a growth at 1 µM (PC-3) of 68% and a growth at 0.01 µM (A498 [21]) of 83%.
